{
  "source": "the supplement of paper PMC11061612",
  "key": {"[1]": {"system": "DMS-114 (Small Cell Lung Carcinoma)", "assay": "Bliss excess, mean over the matrix (fraction); higher = more synergy", "outline": "(§1)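 Cell lines in DMEM/F12 or RPMI with 10% FBS were plated in 1536-well plates, held 24 hours at 37°C, 5% CO2, then given two-drug dose matrices for 72 hours (DMSO typically 0.2%). Viability was read by CellTiter-Glo 2.0 luminescence and scaled as inhibition from 0 (vehicle wells) to 1 (blank wells). Combination Emax is the second-highest inhibition in the matrix; Bliss excess is observed combination effect minus expected EA + EB − EA·EB, EA and EB being single-agent effects.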"}, "[2]": {"system": "KU812 (Chronic Myelogenous Leukemia)", "assay": "Bliss excess, mean over the matrix (fraction); higher = more synergy", "outline": "as §1"}},
  "data": [
    {"smiles": "CN(C)CCCOc1ccc(-c2ccc3ncc4c(c3c2)n(C2CCOCC2)c(=O)n4C)cn1", "note": "[AZD0156] + C=CCn1c(=O)c2cnc(Nc3ccc(N4CCN(C)CC4)cc3)nc2n1-c1cccc(C(C)(C)O)n1 [AZD1775] (first compound max 1 µM, partner max 1 µM)", "values": [
      {"measurement": "Bliss excess", "setting": "[1]", "result": -0.0479},
      {"measurement": "Bliss excess", "setting": "[2]", "result": -0.0046}
    ]},
    {"smiles": "CN(C)CCCOc1ccc(-c2ccc3ncc4c(c3c2)n(C2CCOCC2)c(=O)n4C)cn1", "note": "[AZD0156] + CCN(CCO)CCCOc1ccc2c(Nc3cc(CC(=O)Nc4cccc(F)c4)[nH]n3)ncnc2c1 [AZD2811] (first compound max 1 µM, 7x7, partner max 1 µM)", "values": [
      {"measurement": "Bliss excess", "setting": "[1]", "result": -0.0209},
      {"measurement": "Bliss excess", "setting": "[2]", "result": -0.0158}
    ]},
    {"smiles": "CN(C)CCCOc1ccc(-c2ccc3ncc4c(c3c2)n(C2CCOCC2)c(=O)n4C)cn1", "note": "[AZD0156] + C[C@@H]1COCCN1C2=NC(=NC(=C2)C3(CC3)[S@](=N)(=O)C)C4=C5C=CNC5=NC=C4 [AZD6738] (first compound max 1 µM, 7x7, partner max 10 µM)", "values": [
      {"measurement": "Bliss excess", "setting": "[1]", "result": -0.0138},
      {"measurement": "Bliss excess", "setting": "[2]", "result": -0.0299}
    ]},
    {"smiles": "C=CCn1c(=O)c2cnc(Nc3ccc(N4CCN(C)CC4)cc3)nc2n1-c1cccc(C(C)(C)O)n1", "note": "[AZD1775] + C[C@@H]1COCCN1C2=NC(=NC(=C2)C3(CC3)[S@](=N)(=O)C)C4=C5C=CNC5=NC=C4 [AZD6738] (first compound max 1 µM, partner max 10 µM)", "values": [
      {"measurement": "Bliss excess", "setting": "[1]", "result": 0.0422},
      {"measurement": "Bliss excess", "setting": "[2]", "result": 0.0459}
    ]},
    {"smiles": "C=CCn1c(=O)c2cnc(Nc3ccc(N4CCN(C)CC4)cc3)nc2n1-c1cccc(C(C)(C)O)n1", "note": "[AZD1775] + O=C(c1cc(Cc2n[nH]c(=O)c3ccccc23)ccc1F)N1CCN(C(=O)C2CC2)CC1 [Olaparib] (first compound max 1 µM, partner max 10 µM)", "values": [
      {"measurement": "Bliss excess", "setting": "[1]", "result": -0.021},
      {"measurement": "Bliss excess", "setting": "[2]", "result": -0.039}
    ]},
    {"smiles": "CCN(CCO)CCCOc1ccc2c(Nc3cc(CC(=O)Nc4cccc(F)c4)[nH]n3)ncnc2c1", "note": "[AZD2811] + C=CCn1c(=O)c2cnc(Nc3ccc(N4CCN(C)CC4)cc3)nc2n1-c1cccc(C(C)(C)O)n1 [AZD1775] (first compound max 1 µM, partner max 1 µM)", "values": [
      {"measurement": "Bliss excess", "setting": "[1]", "result": -0.0129},
      {"measurement": "Bliss excess", "setting": "[2]", "result": -0.034}
    ]},
    {"smiles": "CCN(CCO)CCCOc1ccc2c(Nc3cc(CC(=O)Nc4cccc(F)c4)[nH]n3)ncnc2c1", "note": "[AZD2811] + C[C@@H]1COCCN1C2=NC(=NC(=C2)C3(CC3)[S@](=N)(=O)C)C4=C5C=CNC5=NC=C4 [AZD6738] (first compound max 1 µM, 7x7, partner max 10 µM)", "values": [
      {"measurement": "Bliss excess", "setting": "[1]", "result": -0.0301},
      {"measurement": "Bliss excess", "setting": "[2]", "result": -0.0764}
    ]},
    {"smiles": "CCN(CCO)CCCOc1ccc2c(Nc3cc(CC(=O)Nc4cccc(F)c4)[nH]n3)ncnc2c1", "note": "[AZD2811] + O=C(c1cc(Cc2n[nH]c(=O)c3ccccc23)ccc1F)N1CCN(C(=O)C2CC2)CC1 [Olaparib] (first compound max 1 µM, 7x7, partner max 10 µM)", "values": [
      {"measurement": "Bliss excess", "setting": "[1]", "result": -0.0127},
      {"measurement": "Bliss excess", "setting": "[2]", "result": -0.0189}
    ]},
    {"smiles": "CN(CCO)CC[C@H](CSc1ccccc1)Nc1ccc(S(=O)(=O)NC(=O)c2ccc(N3CCC([C@@H](O)c4ccccc4-c4ccc(Cl)cc4)CC3)cc2)cc1S(=O)(=O)C(F)(F)F", "note": "[AZD4320] + C1CN(CCC1(C(=O)N[C@@H](CCO)C2=CC=C(C=C2)Cl)N)C3=NC=NC4=C3C=CN4 [Capivasertib] (first compound max 1 µM, 7x7, partner max 3 µM)", "values": [
      {"measurement": "Bliss excess", "setting": "[1]", "result": -0.0066},
      {"measurement": "Bliss excess", "setting": "[2]", "result": 0.0154}
    ]},
    {"smiles": "CN(CCO)CC[C@H](CSc1ccccc1)Nc1ccc(S(=O)(=O)NC(=O)c2ccc(N3CCC([C@@H](O)c4ccccc4-c4ccc(Cl)cc4)CC3)cc2)cc1S(=O)(=O)C(F)(F)F", "note": "[AZD4320] + C=CCn1c(=O)c2cnc(Nc3ccc(N4CCN(C)CC4)cc3)nc2n1-c1cccc(C(C)(C)O)n1 [AZD1775] (first compound max 1 µM, partner max 1 µM)", "values": [
      {"measurement": "Bliss excess", "setting": "[1]", "result": 0.0074},
      {"measurement": "Bliss excess", "setting": "[2]", "result": 0.0788}
    ]},
    {"smiles": "CN(CCO)CC[C@H](CSc1ccccc1)Nc1ccc(S(=O)(=O)NC(=O)c2ccc(N3CCC([C@@H](O)c4ccccc4-c4ccc(Cl)cc4)CC3)cc2)cc1S(=O)(=O)C(F)(F)F", "note": "[AZD4320] + CCN(CCO)CCCOc1ccc2c(Nc3cc(CC(=O)Nc4cccc(F)c4)[nH]n3)ncnc2c1 [AZD2811] (first compound max 1 µM, 7x7, partner max 1 µM)", "values": [
      {"measurement": "Bliss excess", "setting": "[1]", "result": -0.0398},
      {"measurement": "Bliss excess", "setting": "[2]", "result": -0.0082}
    ]},
    {"smiles": "CN(CCO)CC[C@H](CSc1ccccc1)Nc1ccc(S(=O)(=O)NC(=O)c2ccc(N3CCC([C@@H](O)c4ccccc4-c4ccc(Cl)cc4)CC3)cc2)cc1S(=O)(=O)C(F)(F)F", "note": "[AZD4320] + CN(C)CCCOc1ccc(-c2ccc3ncc4c(c3c2)n(C2CCOCC2)c(=O)n4C)cn1 [AZD0156] (first compound max 1 µM, 7x7, partner max 1 µM)", "values": [
      {"measurement": "Bliss excess", "setting": "[1]", "result": -0.0466},
      {"measurement": "Bliss excess", "setting": "[2]", "result": -0.0086}
    ]},
    {"smiles": "CN(CCO)CC[C@H](CSc1ccccc1)Nc1ccc(S(=O)(=O)NC(=O)c2ccc(N3CCC([C@@H](O)c4ccccc4-c4ccc(Cl)cc4)CC3)cc2)cc1S(=O)(=O)C(F)(F)F", "note": "[AZD4320] + C[C@@H]1COCCN1C2=NC(=NC(=C2)C3(CC3)[S@](=N)(=O)C)C4=C5C=CNC5=NC=C4 [AZD6738] (first compound max 1 µM, 7x7, partner max 10 µM)", "values": [
      {"measurement": "Bliss excess", "setting": "[1]", "result": 0.0073},
      {"measurement": "Bliss excess", "setting": "[2]", "result": 0.0007}
    ]},
    {"smiles": "CN(CCO)CC[C@H](CSc1ccccc1)Nc1ccc(S(=O)(=O)NC(=O)c2ccc(N3CCC([C@@H](O)c4ccccc4-c4ccc(Cl)cc4)CC3)cc2)cc1S(=O)(=O)C(F)(F)F", "note": "[AZD4320] + C[C@@H](Nc1cc(F)cc(F)c1)c1cc(C(=O)N(C)C)cc2c(=O)cc(N3CCOCC3)oc12 [AZD8186] (first compound max 1 µM, 7x7, partner max 3 µM)", "values": [
      {"measurement": "Bliss excess", "setting": "[1]", "result": -0.0096},
      {"measurement": "Bliss excess", "setting": "[2]", "result": 0.0161}
    ]},
    {"smiles": "CN(CCO)CC[C@H](CSc1ccccc1)Nc1ccc(S(=O)(=O)NC(=O)c2ccc(N3CCC([C@@H](O)c4ccccc4-c4ccc(Cl)cc4)CC3)cc2)cc1S(=O)(=O)C(F)(F)F", "note": "[AZD4320] + Cc1cc2ncnn2cc1Nc1ncc2c(n1)n(C1CCOCC1)c(=O)n2C [AZD7648] (first compound max 1 µM, 7x7, partner max 10 µM)", "values": [
      {"measurement": "Bliss excess", "setting": "[1]", "result": -0.0514}
    ]},
    {"smiles": "CN(CCO)CC[C@H](CSc1ccccc1)Nc1ccc(S(=O)(=O)NC(=O)c2ccc(N3CCC([C@@H](O)c4ccccc4-c4ccc(Cl)cc4)CC3)cc2)cc1S(=O)(=O)C(F)(F)F", "note": "[AZD4320] + Cn1cnc2c(F)c(Nc3ccc(Br)cc3Cl)c(C(=O)NOCCO)cc21 [Selumetinib] (first compound max 1 µM, 7x7, partner max 3 µM)", "values": [
      {"measurement": "Bliss excess", "setting": "[1]", "result": 0.0226},
      {"measurement": "Bliss excess", "setting": "[2]", "result": 0.0375}
    ]},
    {"smiles": "Cc1c2c(nn1C)CSCc1cc(n(C)n1)CSc1cc(c3ccccc3c1)OCCCc1c(C(=O)O)n(C)c3c-2c(Cl)ccc13", "note": "[AZD5991] + C1CN(CCC1(C(=O)N[C@@H](CCO)C2=CC=C(C=C2)Cl)N)C3=NC=NC4=C3C=CN4 [Capivasertib] (first compound max 1 µM, 7x7, partner max 3 µM)", "values": [
      {"measurement": "Bliss excess", "setting": "[1]", "result": 0.0696},
      {"measurement": "Bliss excess", "setting": "[2]", "result": -0.0011}
    ]},
    {"smiles": "Cc1c2c(nn1C)CSCc1cc(n(C)n1)CSc1cc(c3ccccc3c1)OCCCc1c(C(=O)O)n(C)c3c-2c(Cl)ccc13", "note": "[AZD5991] + C=CCn1c(=O)c2cnc(Nc3ccc(N4CCN(C)CC4)cc3)nc2n1-c1cccc(C(C)(C)O)n1 [AZD1775] (first compound max 1 µM, partner max 1 µM)", "values": [
      {"measurement": "Bliss excess", "setting": "[1]", "result": -0.0295},
      {"measurement": "Bliss excess", "setting": "[2]", "result": -0.0284}
    ]},
    {"smiles": "Cc1c2c(nn1C)CSCc1cc(n(C)n1)CSc1cc(c3ccccc3c1)OCCCc1c(C(=O)O)n(C)c3c-2c(Cl)ccc13", "note": "[AZD5991] + CC1(C)CCC(CN2CCN(c3ccc(C(=O)NS(=O)(=O)c4ccc(NCC5CCOCC5)c([N+](=O)[O-])c4)c(Oc4cnc5[nH]ccc5c4)c3)CC2)=C(c2ccc(Cl)cc2)C1 [Venetoclax] (first compound max 1 µM, 7x7, partner max 1 µM)", "values": [
      {"measurement": "Bliss excess", "setting": "[1]", "result": 0.0306},
      {"measurement": "Bliss excess", "setting": "[2]", "result": 0.0353}
    ]}
  ]
}
